Reference: PMC11822212, “High-throughput screening identifies Aurora kinase B as a critical therapeutic target for Merkel cell carcinoma” (Nature Communications, 2025)
Structures can show the parent of a compound that is named as a salt. Where two headings read alike, the source gives them in different places.

Columns and labels:
MCC13 cells (VN-MCC) = assay: qHTS cell viability (CellTiter-Glo, 72 h; primary and follow-up small molecule screen); assay type: cell-based, human
MCC26 cells (VN-MCC) = assay: as above; assay type: cell-based, human
UISO cells (VN-MCC) = assay: as above; assay type: cell-based, human
WAGA cells (VP-MCC) = assay: as above; assay type: cell-based, human
MKL-1 cells (VP-MCC) = assay: as above; assay type: cell-based, human
MKL-2 cells (VP-MCC) = assay: as above; assay type: cell-based, human
HACAT cells = assay: qHTS cell viability (CellTiter-Glo, 72 h; primary screen), control cell line; assay type: cell-based, human
HEK293T cells = assay: as above; assay type: cell-based, human
NIH-3T3 cells = assay: as above; assay type: cell-based, mouse
CRL-7250 cells = assay: as above; assay type: cell-based
[1] = test system: MCC cell lines (WAGA, MKL-1, MKL-2, MCC13, MCC26, UISO); assay: qHTS cell viability, all six MCC cell lines as a group (mean AUC, MCC.avg); assay type: cell-based, human
[2] = test system: VP-MCC cell lines (WAGA, MKL-1, MKL-2); assay: qHTS cell viability, VP-MCC cell lines as a group (mean AUC, VP.MCC.avg); assay type: cell-based, human
[3] = test system: VN-MCC cell lines (MCC13, MCC26, UISO); assay: qHTS cell viability, VN-MCC cell lines as a group (mean AUC, VN.MCC.avg); assay type: cell-based, human
[4] = test system: control cell lines (HACAT, HEK293T, CRL-7250, NIH-3T3); assay: qHTS cell viability, control cell lines as a group (mean AUC, Control.avg); assay type: cell-based
[5] = test system: six MCC cell lines and four control cell lines; assay: qHTS cell viability, all 10 cell lines screened; assay type: cell-based
[6] = MIPE library, 11-point DRC, sheet S2E
[7] = MIPE library, 11-point DRC, control cell line, sheet S2E

Question: What does the source list for `O=C(N/N=C/c1ccccc1O)c1ccncc1` [Salinazid]?
Answer: MCC13_AUC (MCC13 cells (VN-MCC); NPC library, qHTS dose-response AUC, MCC13): 439.405; MCC26_AUC (MCC26 cells (VN-MCC); NPC library, qHTS dose-response AUC, MCC26): 445.789; UISO_AUC (UISO cells (VN-MCC); NPC library, qHTS dose-response AUC, UISO): 339.128; WAGA_AUC (WAGA cells (VP-MCC); NPC library, qHTS dose-response AUC, WAGA): 408.656; MKL1_AUC (MKL-1 cells (VP-MCC); NPC library, qHTS dose-response AUC, MKL1): 355.467; MKL2_AUC (MKL-2 cells (VP-MCC); NPC library, qHTS dose-response AUC, MKL2): 340.216; HACAT_AUC (HACAT cells; NPC library, qHTS dose-response AUC, HACAT control): 455.974; HEK293T_AUC (HEK293T cells; NPC library, qHTS dose-response AUC, HEK293T control): 458.621; NIH3T3_AUC (NIH-3T3 cells; NPC library, qHTS dose-response AUC, NIH3T3 control): 449.726; CRL7250_AUC (CRL-7250 cells; NPC library, qHTS dose-response AUC, CRL7250 control): 476.052; MCC_Avg_AUC ([1]; NPC library, mean AUC of all 6 MCC cell lines): 388.11; MCC_Avg_AUC ([1]; NPC library, mean AUC of six MCC cell lines): 388.11; Control-VP-MCC ([2]; Control AUC minus VP-MCC AUC): 91.9801; VP-MCC_Avg_AUC ([2]; NPC library, mean AUC of VP-MCC cell lines): 368.113; Control-VP-MCC ([2]; NPC library, therapeutic window: Control avg AUC minus VP-MCC avg AUC): 91.9801; Control-VN-MCC ([3]; Control AUC minus VN-MCC AUC): 51.9858; VN-MCC_Avg_AUC ([3]; NPC library, mean AUC of VN-MCC cell lines): 408.107; Control-VN-MCC ([3]; NPC library, therapeutic window: Control avg AUC minus VN-MCC avg AUC): 51.9858; Control_Avg_AUC ([4]; NPC library, mean AUC of control cell lines): 460.093; Control-MCC ([5]; NPC library, therapeutic window: Control avg AUC minus MCC avg AUC): 71.983

Question: With `C#CCN(C)[C@H](C)Cc1ccccc1` [Selegiline hydrochloride] as the compound, how does the MCC13_AUC (MCC13 cells (VN-MCC)) read?
Answer: 453.711

Question: What about the MCC26_AUC (MCC26 cells (VN-MCC)) of the same compound?
Answer: 442.321

Question: What about the UISO_AUC (UISO cells (VN-MCC)) of the same compound?
Answer: 478.192

Question: And the WAGA_AUC (WAGA cells (VP-MCC))?
Answer: 431.581

Question: And the MKL1_AUC (MKL-1 cells (VP-MCC))?
Answer: 401.694

Question: What about the MKL2_AUC (MKL-2 cells (VP-MCC)) of the same compound?
Answer: 391.028

Question: What about the HACAT_AUC (HACAT cells) of the same compound?
Answer: 471.82

Question: And the HEK293T_AUC (HEK293T cells)?
Answer: 439.797

Question: And the NIH3T3_AUC (NIH-3T3 cells)?
Answer: 471.047

Question: What about the CRL7250_AUC (CRL-7250 cells) of the same compound?
Answer: 455.418

Question: What about the MCC_Avg_AUC [1] of the same compound?
Answer: 433.088

Question: What about the Control-VP-MCC [2] of the same compound?
Answer: 51.4197

Question: And the VP-MCC_Avg_AUC [2]?
Answer: 408.101

Question: What about the Control-VN-MCC [3] of the same compound?
Answer: 1.446

Question: And the VN-MCC_Avg_AUC [3]?
Answer: 458.075

Question: And the Control_Avg_AUC [4]?
Answer: 459.521

Question: What about the Control-MCC [5] of the same compound?
Answer: 26.4329

Question: `CN[C@@H]1[C@H](O)[C@H](NC)[C@H]2O[C@@]3(O)C(=O)C[C@@H](C)O[C@H]3O[C@@H]2[C@H]1O.Cl.Cl` [Spectinomycin dihydrochloride] was tested. Which MCC13_AUC (MCC13 cells (VN-MCC); [6]) did it give?
Answer: 461.506

Question: And the MCC13_AUC (MCC13 cells (VN-MCC); area under the dose-response curve, MCC13 cells, AUC<450 = reduced viability)?
Answer: 467.588

Question: What about the MCC26_AUC (MCC26 cells (VN-MCC); [6]) of the same compound?
Answer: 481.076

Question: What about the MCC26_AUC (MCC26 cells (VN-MCC); area under the dose-response curve, MCC26 cells, AUC<450 = reduced viability) of the same compound?
Answer: 511.183

Question: What about the UISO_AUC (UISO cells (VN-MCC); [6]) of the same compound?
Answer: 392.644

Question: And the UISO_AUC (UISO cells (VN-MCC); area under the dose-response curve, UISO cells, AUC<450 = reduced viability)?
Answer: 477.843

Question: What about the WAGA_AUC (WAGA cells (VP-MCC); [6]) of the same compound?
Answer: 274.54

Question: And the WAGA_AUC (WAGA cells (VP-MCC); area under the dose-response curve, WAGA cells, AUC<450 = reduced viability)?
Answer: 400.83

Question: What about the MKL1_AUC (MKL-1 cells (VP-MCC); [6]) of the same compound?
Answer: 242.204

Question: And the MKL1_AUC (MKL-1 cells (VP-MCC); area under the dose-response curve, MKL-1 cells, AUC<450 = reduced viability)?
Answer: 379.185

Question: And the MKL2_AUC (MKL-2 cells (VP-MCC); [6])?
Answer: 323.757

Question: What about the MKL2_AUC (MKL-2 cells (VP-MCC); area under the dose-response curve, MKL-2 cells, AUC<450 = reduced viability) of the same compound?
Answer: 429.069

Question: And the HACAT_AUC (HACAT cells; [7])?
Answer: 460.149

Question: And the HACAT_AUC (HACAT cells; area under the dose-response curve, HACAT control cells, AUC<450 = reduced viability)?
Answer: 475.545

Question: And the HEK293T_AUC (HEK293T cells; [7])?
Answer: 472.116

Question: What about the HEK293T_AUC (HEK293T cells; area under the dose-response curve, HEK293T control cells, AUC<450 = reduced viability) of the same compound?
Answer: 456.43

Question: What about the NIH3T3_AUC (NIH-3T3 cells; [7]) of the same compound?
Answer: 480.157

Question: What about the NIH3T3_AUC (NIH-3T3 cells; area under the dose-response curve, NIH3T3 control cells, AUC<450 = reduced viability) of the same compound?
Answer: 486.283

Question: And the CRL7250_AUC (CRL-7250 cells; [7])?
Answer: 477.882

Question: And the CRL7250_AUC (CRL-7250 cells; area under the dose-response curve, CRL7250 control cells, AUC<450 = reduced viability)?
Answer: 453.169

Question: What about the MCC_Avg_AUC ([1]; MIPE library, mean AUC of six MCC cell lines, sheet S2E) of the same compound?
Answer: 362.621

Question: What about the Control-VP-MCC ([2]; MIPE library, Control AUC minus VP-MCC AUC (therapeutic window), sheet S2E) of the same compound?
Answer: 192.409

Question: And the VP-MCC_Avg_AUC ([2]; MIPE library, mean AUC of VP-MCC cell lines, sheet S2E)?
Answer: 280.167

Question: And the Control-VN-MCC ([3]; MIPE library, Control AUC minus VN-MCC AUC (therapeutic window), sheet S2E)?
Answer: 27.501

Question: What about the VN-MCC_Avg_AUC ([3]; MIPE library, mean AUC of VN-MCC cell lines, sheet S2E) of the same compound?
Answer: 445.075

Question: And the Control_Avg_AUC ([4]; MIPE library, mean AUC of control cell lines, sheet S2E)?
Answer: 472.576

Question: What about the Control-MCC ([5]; MIPE library, Control AUC minus MCC AUC (therapeutic window), sheet S2E) of the same compound?
Answer: 109.955

Question: `CC[N+](CC)(CC)CCOc1ccc(/C=C/c2ccccc2)cc1` [Stilonium iodide] was tested. Which MCC13_AUC (MCC13 cells (VN-MCC)) did it give?
Answer: 466.903

Question: What about the MCC26_AUC (MCC26 cells (VN-MCC)) of the same compound?
Answer: 402.111

Question: What about the UISO_AUC (UISO cells (VN-MCC)) of the same compound?
Answer: 334.732

Question: What about the WAGA_AUC (WAGA cells (VP-MCC)) of the same compound?
Answer: 348.194

Question: And the MKL1_AUC (MKL-1 cells (VP-MCC))?
Answer: 307.411

Question: What about the MKL2_AUC (MKL-2 cells (VP-MCC)) of the same compound?
Answer: 312.305

Question: And the HACAT_AUC (HACAT cells)?
Answer: 372.384

Question: And the HEK293T_AUC (HEK293T cells)?
Answer: 375.842

Question: What about the NIH3T3_AUC (NIH-3T3 cells) of the same compound?
Answer: 427.937

Question: And the CRL7250_AUC (CRL-7250 cells)?
Answer: 355.764

Question: What about the MCC_Avg_AUC [1] of the same compound?
Answer: 361.943

Question: And the Control-VP-MCC [2]?
Answer: 60.3449

Question: What about the VP-MCC_Avg_AUC [2] of the same compound?
Answer: 322.637

Question: What about the Control-VN-MCC [3] of the same compound?
Answer: -18.2672

Question: And the VN-MCC_Avg_AUC [3]?
Answer: 401.249

Question: And the Control_Avg_AUC [4]?
Answer: 382.981

Question: And the Control-MCC [5]?
Answer: 21.0388
